# Reference: US12044684B2, “Methods for diagnosing an autistic spectrum disorder” (QATAR UNIVERSITY, priority 2018, dated 2024)
# Assay: Renal clearance (CL) of free adducts and unmodified amino acids deduced from plasma and spot urine
# Assay type: in vivo, human
# Conditions: children with ASD compared to healthy control; P<0.001
# Source text: In one embodiment, renal clearance amino acid adducts is deduced from the concentration of an amino acid adduct detected in a plasma and urine sample according to the following equation: CL (μl/mg creatinine or ml/mg creatinine)=[Analyte]Urine (nmol/mg creatinine)/[Analyte]Plasma (pmol/ml or nmol/ml).
# Oxidation, nitration and glycation adduct residues are normalised to their amino acid residue precursors and given as mmol/mol amino acid modified; and related free adducts are given in nM. […] Renal clearance (CL) of glycation, oxidation and nitration free adducts and unmodified amino acids was deduced from plasma and spot urine collections: CL (μl/mg creatinine or ml/mg creatinine)=[Analyte]Urine (nmol/mg creatinine)/[Analyte]Plasma (pmol/ml or nmol/ml).
row,decrease in renal clearance (CL) [%],Compound
1,32,"N=C(N)NCCC[C@H](N)C(=O)O [arg, arginine]"

# Same assay, conditions: children with ASD with respect to healthy controls
row,Compound,"renal clearance, change"
1,"N[C@@H](CCCCN1C[C@@H](O)[C@@H](O)CC2NC(=NCCC[C@H](N)C(=O)O)N=C21)C(=O)O (stereo partly drawn) [GSP, glucosepane]",decreased
2,"N=C(N)NCCC[C@H](N)C(=O)O [arg, arginine]",decreased
3,"C[C@@H](O)[C@H](N)C(=O)O [thr, threonine]",decreased

# Further lines, results first:
row,"renal clearance, change",Compound
1,decreased,"NC(Cc1ccc(O)c(-c2cc(CC(N)C(=O)O)ccc2O)c1)C(=O)O (stereo not drawn) [DT, dityrosine]"
2,increased,"NC(CC(=O)c1ccccc1NC=O)C(=O)O (stereo not drawn) [NFK, N-formylkynurenine]"
3,decreased,"N[C@@H](CCC(=O)O)C(=O)O [glu, glutamate]"
4,decreased,"CC(C)C[C@H](N)C(=O)O [leu, leucine]"
5,decreased,"N[C@@H](Cc1ccccc1)C(=O)O [phe, phenylalanine]"
6,increased,"N[C@@H](Cc1c[nH]c2ccccc12)C(=O)O [trp, tryptophan]"

# Same assay, conditions: in vivo
decrease in renal clearance (CL) [%],"renal clearance, change",Compound
50,decreased,"N=C(NCCC[C@H](N)C(=O)O)NCC(=O)O [CMA, Nω-carboxymethylarginine]"
